Read-outs that look alike come from different tables or passages of the source.
Tests used:
[1] = tested on: 6 Hz (32 mA) seizures, mice; experiment: 6 Hz (32 mA) psychomotor seizure test; format: in vivo; conditions: Mus musculus, ip, 100 mg/kg i.p., 0.5 h;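 note: compounds given as one i.p. dose suspended in 1% aqueous Tween 80, with the 6 Hz (32 mA) model considered to reflect focal epilepsy in humans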
[2] = tested on: maximal electroshock (MES) seizures, mice; experiment: maximal electroshock (MES) seizure test; format: in vivo; conditions: Mus musculus, ip; 100 mg/kg i.p., 0.5 h, mice; read-out: MES: number of mice protected/number of mice tested (converted)
body temperature, mice = experiment: capsaicin-induced hypothermia test / rectal temperature; format: in vivo, mouse
Method: In this study, we used the capsaicin-induced hypothermia model in mice to evaluate the effect of eutomers (R)-31, (R)-32, and (R)-33 on body temperature and to provide more data related to their on-target activity (i.e., antagonism of TRPV1) (Figure S5A–D). Capsaicin given i.p. at a dose of 5 mg/kg produced a marked decrease in rectal temperature at 15 min post injection (p < 0.0001). The temperature returned to normal values within 30–60 min after capsaicin injection. […] None of the tested compounds reversed the capsaicin-induced hypothermia.
The changes in body temperature in the capsaicin-induced hypothermia model were evaluated as described previously. Eutomers (R)-31, (R)-32, and (R)-33 were suspended in a 1% Tween 80 and administered i.p. 15 min before injection of capsaicin (5 mg/kg, i.p.). The corresponding vehicles (1% DMSO or 1% Tween 80) were given to the control animals. Using an electronic thermometer (ThermoWorks, Alpine, Utah, USA), changes in the mouse’s rectal temperature were recorded by inserting the rectal probe approximately 2 cm into the mouse’s rectum. After −15, 0, 15, 30, 60, 90, 120, and 180 min, the measurements were collected. Subsequently, the variations in rectal temperature between the baseline ([…] for the groups receiving compounds and BCTC in conjunction with the vehicle, or […] for the groups receiving the vehicle, compounds, and BCTC in combination with the capsaicin) and the corresponding time point ΔT (°C) were computed and examined.
Figure S5. Acute effects of BCTC (A), (R)-31 (B), (R)-32 (C), and (R)-33 (D) on rectal temperature in the capsaicin-induced test in mice. Capsaicin (CPS) or vehicle (1% DMSO) were injected i.p. at 0 min, as indicated by the arrows.
BCTC, (R)-31, (R)-32, and (R)-33 were suspended in 1% Tween 80 and administered i.p. 15 min before CPS or vehicle injection. The temperature was measured at -15, 0, 15, 30, 60, 90, 120, and 180 min. Since body temperature returned to control values 60 min after CPS injection, subsequent measurements are not shown.
Data are presented as the mean differences (ΔT) in rectal temperature from 0 to -15 min (time point 0 min), from 15 to 0 min (time point 15 min), from 30 to 0 min (time point 30 min), and from 60 to 0 min (time point 60 min); n = 6–8 animals/group. Statistical significance was evaluated using one-way ANOVA with Tukey’s post hoc test: […]
(1 picture or pasted object on this page, not shown here)

TRPV1 (VR1) (h) = biological target: T1, TRPV1 (VR1) (h) (Homo sapiens, UniProt Q8NER1); experiment: TRPV1 (VR1) (h) (antagonist effect); format: cell-based; conditions: 100 µM, human recombinant CHO cells; read-out: % Inhibition of control agonist response
T1 construct: host or cells: CHO cells
T1 sequence (Q8NER1 whole entry): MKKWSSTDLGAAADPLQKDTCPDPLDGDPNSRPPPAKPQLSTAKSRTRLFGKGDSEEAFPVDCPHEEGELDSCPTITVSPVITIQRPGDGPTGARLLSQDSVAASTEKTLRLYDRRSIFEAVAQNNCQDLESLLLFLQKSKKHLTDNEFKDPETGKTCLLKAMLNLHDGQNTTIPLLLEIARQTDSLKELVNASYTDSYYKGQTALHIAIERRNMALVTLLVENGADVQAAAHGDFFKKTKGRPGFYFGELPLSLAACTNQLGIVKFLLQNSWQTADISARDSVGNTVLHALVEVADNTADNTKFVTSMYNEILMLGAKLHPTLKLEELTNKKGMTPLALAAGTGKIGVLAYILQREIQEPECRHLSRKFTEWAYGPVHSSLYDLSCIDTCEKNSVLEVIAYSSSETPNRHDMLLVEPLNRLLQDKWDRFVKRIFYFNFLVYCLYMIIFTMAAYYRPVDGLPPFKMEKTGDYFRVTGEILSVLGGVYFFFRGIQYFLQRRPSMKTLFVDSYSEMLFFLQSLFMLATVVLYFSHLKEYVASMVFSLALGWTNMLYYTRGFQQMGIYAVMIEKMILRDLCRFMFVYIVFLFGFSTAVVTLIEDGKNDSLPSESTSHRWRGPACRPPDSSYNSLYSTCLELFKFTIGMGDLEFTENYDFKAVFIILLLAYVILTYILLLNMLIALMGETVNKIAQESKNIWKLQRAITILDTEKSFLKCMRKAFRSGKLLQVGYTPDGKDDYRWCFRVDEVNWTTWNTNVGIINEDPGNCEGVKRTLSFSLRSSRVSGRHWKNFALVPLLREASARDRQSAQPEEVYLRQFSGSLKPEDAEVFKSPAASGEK
Method: Further in vitro functional studies confirmed TRPV1 antagonist activity for (R)-31–(R)-33.
Using previously described testing methodologies, binding/functional tests were conducted on a commercial basis at Eurofins Laboratories (Poitiers, France) and Eurofins Panlabs Discovery Services Taiwan, Ltd. (New Taipei City, Taiwan); see Table S9 for more information.
Table S9. Radioligand binding and functional assays. […]
TRPV1 (VR1) (h) (antagonist effect) […]
Assays were performed commercially in Eurofins Laboratories (Poitiers, France) or Eurofins Panlabs Discovery Services
Taiwan, Ltd. (New Taipei City, Taiwan).

[3] = PAMPA (Precoated PAMPA Plate System Gentest) passive permeability; format: in vitro ADME; conditions: passive blood–brain barrier permeability model
[4] = four mice, read-out: protection in the 6 Hz (32 mA) test
[5] = mice, read-out: 6 Hz (32 mA): number of mice protected/number of mice tested (converted)

Compound | melting point | inhibition at 100 µM (TRPV1 (VR1) (h)) | responders at 100 mg/kg [1, 4] | responders at 100 mg/kg [1, 5] | responders at 100 mg/kg [2] | effect on capsaicin-induced hypothermia (body temperature, mice; 20 mg/kg with capsaicin 5 mg/kg i.p., p < 0.0001 at 15 and 30 min) | effect on body temperature, administered alone (body temperature, mice; 20 mg/kg, 15 min after injection, p < 0.05) | permeability coefficient (Pe) [3]
CC(=O)N[C@H](C(=O)N1CCN(c2cccc(OC(F)(F)F)c2)CC1)c1ccccc1 [(S)-32, (S)-N-(2-Oxo-1-phenyl-2-(4-(3-(trifluoromethoxy)phenyl)piperazin-1-yl)ethyl)acetamide] | – | – | 75% | 75% | 25% | – | – | –
CC(=O)N[C@H](C(=O)N1CCN(c2cccc(SC(F)(F)F)c2)CC1)c1ccccc1 [(S)-33, (S)-N-(2-Oxo-1-phenyl-2-(4-(3-((trifluoromethyl)thio)phenyl)piperazin-1-yl)ethyl)acetamide] | – | – | 75% | 75% | 25% | – | – | –
CC(C)(C)c1ccc(NC(=O)N2CCN(c3ncccc3Cl)CC2)cc1 [BCTC, reference compound] | – | – | – | – | – | alleviated the capsaicin-induced hypothermia | caused a significant increase in body temperature | –
O=C(NC(C(=O)N1CCN(c2cccc(C(F)(F)F)c2)CC1)c1ccccc1)c1ccccc1 (centres unmarked) [Compound 3, N-(2-Oxo-1-phenyl-2-(4-(3-(trifluoromethyl)phenyl)piperazin-1-yl)ethyl)benzamide] | 140.9 to 141.2 °C | 11.4% | 50% | 50% | 0% | – | – | –
O=C(NC(C(=O)N1CCN(c2cccc(C(F)(F)F)c2)CC1)c1ccccc1)c1cccc(Cl)c1 (centres unmarked) [Compound 5, 3-Chloro-N-(2-oxo-1-phenyl-2-(4-(3-(trifluoromethyl)phenyl)piperazin-1-yl)ethyl) Benzamide] | 151.7 to 152.4 °C | 3.8% | 50% | 50% | 0% | – | – | –
O=C(NC(C(=O)N1CCN(c2cccc(C(F)(F)F)c2)CC1)c1ccccc1)c1ccc(C(F)(F)F)cc1 (centres unmarked) [Compound 9, N-(2-Oxo-1-phenyl-2-(4-(3-(trifluoromethyl)phenyl)piperazin-1-yl)ethyl)-4-(trifluoromethyl) Benzamide] | 103.4 to 104.2 °C | 6.2% | – | 0% | 0% | – | – | –
O=C(NC(C(=O)N1CCN(c2cccc(C(F)(F)F)c2)CC1)c1ccccc1)c1ncccc1C(F)(F)F (centres unmarked) [Compound 10, N-(2-Oxo-1-phenyl-2-(4-(3-(trifluoromethyl)phenyl)piperazin-1-yl)ethyl)-3-(trifluoromethyl)picolinamide] | – | -3.5% | – | 50% | 0% | – | – | –
CC(=O)NC(C(=O)NC1CCN(c2cccc(OC(F)(F)F)c2)C1)c1ccccc1 (centres unmarked) [Compound 23, 2-Acetamido-2-phenyl-N-(1-(3-(trifluoromethoxy)phenyl)pyrrolidin-3-yl)acetamide] | 173.1 to 174.2 °C | -2.7% | 50% | 50% | 0% | – | – | –
Cn1c(=O)c2c(ncn2C)n(C)c1=O [caffeine, reference compound] | – | – | – | – | – | – | – | 3.46 × 10^–6 cm/s

Continued, in another order:

melting point | inhibition at 100 µM (TRPV1 (VR1) (h)) | Compound | responders at 100 mg/kg [1, 4] | responders at 100 mg/kg [1, 5] | responders at 100 mg/kg [2] | effect on capsaicin-induced hypothermia (body temperature, mice; 20 mg/kg with capsaicin 5 mg/kg i.p., p < 0.0001 at 15 and 30 min) | effect on body temperature, administered alone (body temperature, mice; 20 mg/kg, 15 min after injection, p < 0.05) | permeability coefficient (Pe) [3]
109.8 to 110.6 °C | – | CC(=O)N[C@H](C(=O)N1CCN(c2cccc(C(F)(F)F)c2)CC1)c1ccccc1 [(S)-31, (S)-N-(2-Oxo-1-phenyl-2-(4-(3-(trifluoromethyl)phenyl)piperazin-1-yl)ethyl)acetamide] | 50% | 50% | 25% | – | – | –
134.8 to 135.9 °C | 14.4% | O=C(NC(C(=O)N1CCN(c2cccc(C(F)(F)F)c2)CC1)c1ccccc1)c1ccccc1Cl (centres unmarked) [Compound 4, 2-Chloro-N-(2-oxo-1-phenyl-2-(4-(3-(trifluoromethyl)phenyl)piperazin-1-yl)ethyl) Benzamide] | – | 0% | 0% | – | – | –
165.2 to 166.7 °C | 6.8% | O=C(NC(C(=O)N1CCN(c2cccc(C(F)(F)F)c2)CC1)c1ccccc1)c1ccc(Cl)cc1 (centres unmarked) [Compound 6, 4-Chloro-N-(2-oxo-1-phenyl-2-(4-(3-(trifluoromethyl)phenyl)piperazin-1-yl)ethyl) Benzamide] | 25% | 25% | 0% | – | – | –
165.2 to 166.7 °C | -2.6% | O=C(NC(C(=O)N1CCN(c2cccc(C(F)(F)F)c2)CC1)c1ccccc1)c1ccccc1C(F)(F)F (centres unmarked) [Compound 7, N-(2-Oxo-1-phenyl-2-(4-(3-(trifluoromethyl)phenyl)piperazin-1-yl)ethyl)-2 (trifluoromethyl)benzamide] | – | 0% | 0% | – | – | –
143.2 to 144.1 °C | -6.1% | O=C(NC(C(=O)N1CCN(c2cccc(C(F)(F)F)c2)CC1)c1ccccc1)c1cccc(C(F)(F)F)c1 (centres unmarked) [Compound 8, N-(2-Oxo-1-phenyl-2-(4-(3-(trifluoromethyl)phenyl)piperazin-1-yl)ethyl)-3-(trifluoromethyl)benzamide] | – | 0% | 0% | – | – | –
101.2 to 102.4 °C | -4.2% | O=C(NC(C(=O)N1CCN(c2cccc(C(F)(F)F)c2)CC1)c1ccccc1)c1cc(C(F)(F)F)ccn1 (centres unmarked) [Compound 11, N-(2-Oxo-1-phenyl-2-(4-(3-(trifluoromethyl)phenyl)piperazin-1-yl)ethyl)-4-(trifluoromethyl)picolinamide] | – | 50% | 0% | – | – | –
146.5 to 147.2 °C | -1.2% | O=C(NC(C(=O)N1CCN(c2cccc(C(F)(F)F)c2)CC1)c1ccccc1)c1ccc(C(F)(F)F)cn1 (centres unmarked) [Compound 12, N-(2-Oxo-1-phenyl-2-(4-(3-(trifluoromethyl)phenyl)piperazin-1-yl)ethyl)-5-(trifluoromethyl)picolinamide] | – | 50% | 0% | – | – | –
189.7 to 190.5 °C | 4.2% | CC(=O)NC(C(=O)NC1CCN(c2ccccc2)C1)c1ccccc1 (centres unmarked) [Compound 21, 2-Acetamido-2-phenyl-N-(1-phenylpyrrolidin-3-yl)acetamide] | – | 0% | 0% | – | – | –
203.7 to 204.4 °C | -8.4% | CC(=O)NC(C(=O)NC1CCN(c2cccc(C(F)(F)F)c2)C1)c1ccccc1 (centres unmarked) [Compound 22, 2-Acetamido-2-phenyl-N-(1-(3-(trifluoromethyl)phenyl)pyrrolidin-3-yl)acetamide] | 50% | 50% | 0% | – | – | –
168.8 to 169.7 °C | 1.3% | CC(=O)NC(C(=O)NC1CCN(c2cccc(SC(F)(F)F)c2)C1)c1ccccc1 (centres unmarked) [Compound 24, 2-Acetamido-2-phenyl-N-(1-(3-((trifluoromethyl)thio)phenyl)pyrrolidin-3-yl)acetamide] | 25% | 25% | 0% | – | – | –

From paper PMC11378297, “Discovery and Profiling of New Multimodal Phenylglycinamide Derivatives as Potent Antiseizure and Antinociceptive Drug Candidates” (ACS Chemical Neuroscience, 2024)
